According to publication PMC6148246, “HS-1371, a novel kinase inhibitor of RIP3-mediated necroptosis” (Experimental & Molecular Medicine, 2018):

Assays:
p-MLKL = test: Phospho-MLKL immunofluorescence in HT-29 cells; type: cell-based, human; details: HT-29, immunofluorescence
Experimental: HT-29 cells were fixed in 4% paraformaldehyde for 10 min. To stain phospho-MLKL, cells were permeabilized with 0.25% Triton X-100 for 10 min. After incubation in a blocking buffer (10% fetal bovine serum in DPBS) for 30 min, the primary antibody to phospho-MLKL was incubated overnight at 4 °C, and FITC-conjugated secondary antibody (goat anti-rabbit IgG, 1:250, dilution, Invitrogen) was incubated for 1 h at room temperature. A mounting medium containing DAPI (VECTASHIELD, Cat No. 94010, Vector Laboratories) was used for counterstaining. Representative images were taken by confocal microscope.
HT-29 cells were pretreated with four tested inhibitors for 2 h and then treated with TSZ (6 h for immunoblotting, 24 h for cell death assay). Cell lysates were analyzed by immunoblotting, and cell viability was analyzed by MTT assay or phase-contrast microscopy. The results are presented as the means ± SEM. *P < 0.05, **P < 0.01, ***P < 0.001. b Protection of necroptosis by HS-1371 treatment is similar with dabrafenib, which abolished downstream events. HT-29 cells were pretreated with various necroptosis inhibitors and HS-1371 before TSZ treatment. Cell lysates were analyzed by immunoblotting, and cell viability was analyzed by MTT assay (left panel). Cells were stained with phospho-MLKL antibody and analyzed by confocal fluorescence microscopy (middle panel), and cell death was further analyzed by FACS analysis after PI staining (right panel). c HS-1371 protects cells from TNF-induced necroptosis in a dose-dependent manner. HT-29 cells were pretreated with indicated concentrations of HS-1371 and then treated with TSZ (6 h for immunoblotting, 24 h for cell death assay). Cell lysates were analyzed by immunoblotting, and cell viability was analyzed by MTT assay or phase-contrast microscopy. The results are presented as means ± SEM. *P < 0.05, **P < 0.01, ***P < 0.001 TEXT PRINTED IN THE PICTURE: (b) TSZ: 20.7 | (b) TSZ + Nec-1: 5.8 | (b) TSZ + DAB: 5.5 | (b) TSZ + 1371: 6.8 DOUBTS OF THE COPYIST ABOUT THIS PICTURE: Panel b, flow cytometry plots: the red gate numbers are printed without a measure or unit, so none is given / Panel b: the 'Untreated' control plot prints 7.7; left out because it is not a substance

HT-29 cells = test: TRAIL-induced necroptosis in HT-29 cells (immunoblot, MTT); type: cell-based
Experimental: HT-29 cells expressing RIP3 shRNA, MLKL shRNA, or non-silencing control were analyzed by western blotting (upper panel), and these cells were treated with TSZ (6 h for immunoblotting, 24 h for cell death assay). Cell lysates were analyzed by immunoblotting (middle panel), and cell viability was analyzed by MTT assay (bottom panel). The results are presented as means ± SEM. *P < 0.05, **P < 0.01, ***P < 0.001. b HS-1371 protected cells not only from TNF-induced necroptosis but also from TRAIL-induced necroptosis. HT-29 cells were pretreated with indicated concentrations of HS-1371 and then treated with TRAIL + Smac + zVAD (6 h for immunoblotting, 24 h for cell death assay). Cell lysates were analyzed by immunoblotting, and cell viability was analyzed by MTT assay or phase-contrast microscopy. The results are presented as means ± SEM. *P < 0.05, **P < 0.01, ***P < 0.001. c, d HS-1371 had no effect on TNF-induced apoptosis. HT-29 cells were pretreated with HS-1371 (5 μM) for 2 h and then treated with TC or TS (TNF + either cycloheximide or SMAC mimetic, hereafter referred to as TC or TS, 6 h for immunoblotting, 24 h (TC) or 36 h (TS) for cell death assay). Cell lysates were analyzed by immunoblotting, and cell viability was analyzed by MTT assay (TC) or CellTiter-Glo Luminescent Cell Viability Assay Kit (TS). The results are presented as means ± SEM. *P < 0.05, **P < 0.01, ***P < 0.001 […]

HeLa cells = HeLa cells ectopically expressing RIP3 (immunoblot, MTT); type: cell-based, human
Experimental: HEK293T, HT-29, H2009, L929, HeLa, and MEF cells were grown in Dulbecco’s Modified Eagle’s Medium (DMEM) supplemented with 10% fetal bovine serum (FBS). RAW264.7 cells were grown in Roswell Park Memorial Institute (RPMI) 1640 media supplemented with 10% FBS. To generate cell lines stably expressing the RIP3 construct, HeLa and H2009 cells were infected with pLX303-hRIP3 lentivirus.
Cells were pretreated with DAB or HS-1371 for 2 h and then treated with TSZ (6 h for immunoblotting, 24 h for cell death assay). Cell lysates were analyzed by immunoblotting (left bottom panel), and cell viability was analyzed by MTT assay (right panel). The results are presented as means ± SEM. *P < 0.05, **P < 0.01, ***P < 0.001. c, d HS-1371 had the same effect on mouse cells. L929 (mouse sarcoma, c) and MEF (mouse embryonic fibroblast, d) cells were pretreated with inhibitors and then necroptosis was induced by TNF. Cell lysates were analyzed by immunoblotting (upper panel), and cell viability was analyzed by MTT assay (bottom panel). The results are presented as means ± SEM. *P < 0.05, **P < 0.01, ***P < 0.001

RIP3 = RIP3 (Homo sapiens, UniProt Q9Y572); test: Mechanism of action / ATP competition study with RIP3 enzyme; type: biochemical; details: 20 min pre-incubation; Michaelis-Menten and Lineweaver-Burk plots
Chain of RIP3 (Q9Y572 whole entry): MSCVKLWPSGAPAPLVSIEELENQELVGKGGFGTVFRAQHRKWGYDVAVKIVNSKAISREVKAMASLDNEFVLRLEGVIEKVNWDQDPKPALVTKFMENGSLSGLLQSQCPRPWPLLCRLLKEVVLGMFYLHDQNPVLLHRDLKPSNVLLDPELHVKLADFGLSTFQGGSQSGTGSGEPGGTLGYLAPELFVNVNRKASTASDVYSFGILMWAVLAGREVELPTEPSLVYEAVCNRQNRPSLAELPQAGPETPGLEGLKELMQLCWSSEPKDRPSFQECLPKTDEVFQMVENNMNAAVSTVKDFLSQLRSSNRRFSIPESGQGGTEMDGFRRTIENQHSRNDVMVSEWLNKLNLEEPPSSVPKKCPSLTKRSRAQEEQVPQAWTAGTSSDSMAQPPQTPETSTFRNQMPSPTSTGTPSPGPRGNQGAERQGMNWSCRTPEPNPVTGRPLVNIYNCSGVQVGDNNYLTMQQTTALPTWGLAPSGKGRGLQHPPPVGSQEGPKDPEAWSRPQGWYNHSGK
Experimental: To understand the interaction modes of these inhibitors within RIP3, the mechanisms of action studies including ATP competition were further performed with HS-1371. A 20 min pre-incubation of the compound and RIP3 enzyme was performed to ensure HS-1371 binding to the enzyme and equilibration. The reactions were monitored every 5–15 min to obtain progress curves with a time course. At each time point, radioisotope signal (^33P) was converted into M phosphate transferred to substrate and was plotted against time. The slopes (or velocity; M/min) were then plotted against ATP concentrations to generate a Michaelis–Menten plot and a subsequent Lineweaver–Burk plot (double-reciprocal plot) using GraphPad Prism software (GraphPad Software Inc., San Diego, CA). The results were further analyzed with global fit using GraFit software.

Cc1ccc(Oc2ccnc3cc(-c4cnn(C5CCNCC5)c4)ccc23)cc1 [HS-1371, 7-(1-(Piperidin-4-yl)-1H-pyrazol-4-yl)-4-(p-tolyloxy)quinoline]
p-MLKL detection / translocation after TSZ (p-MLKL): no detection of p-MLKL
TRAIL-induced S227 phosphorylation of RIP3 and RIP3-mediated phosphorylation of MLKL (HT-29 cells; HT-29, TRAIL + Smac mimetic + zVAD 6 h, dose-dependent): decreased
TRAIL-induced cytotoxicity (HT-29 cells; HT-29, TRAIL + Smac mimetic + zVAD 24 h, MTT): reduction in cytotoxicity
basal RIP3 phosphorylation (HeLa cells; HeLa with ectopic RIP3, 6 h, dose-dependent): decreased
cell viability after TSZ (HeLa cells; HeLa with ectopic RIP3, TSZ 24 h, MTT, dose-dependent): gradually increased
TSZ-induced RIP3 phosphorylation and MLKL phosphorylation (HeLa cells; HeLa with ectopic RIP3, pretreated 2 h, TSZ 6 h): effectively blocked
mechanism of action upon binding to RIP3 (RIP3): time-independent and ATP-competitive
